Source: patent publication US9833497B2, “Human originated EGF domain proteins and use of the same” (CHENGDU SOURCEBIO LIMITED-LIABILITY COMPANY, priority 2013, dated 2017)

How the values were obtained:
Type in all cases: cell-based
E. coli DH5α = test: Antibacterial activity: MIC and growth curve against E. coli DH5α in 96-well plate; conditions: minimal inhibitory concentration against E. coli DH5α; 96-well plate, 5×10^5 CFU/mL, 37° C., judged after 8 h
How it was run: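 Log-phase DH5α (OD600 about 0.5, 37° C, 185 rpm in LB) was pelleted, resuspended in fresh LB and seeded at 5×10^5 CFU/mL with recombinant protein at 50, 25 and 12.5 μg/mL (two-fold series), in triplicate. Plates were shaken at 175 rpm, 37° C, and OD600 was read every 30 min. MIC was the lowest concentration with no growth.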

E. coli BL21 = test: MIC against Gram-negative bacteria: E. coli BL21; conditions: 5×10^5 CFU/mL
How it was run: (§1)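 Broth microdilution, LB medium, final inoculum 5×10^5 CFU/mL from McFarland 0.5 cultures. Recombinant human EGF domain proteins tested in two-fold steps, n=3. MIC: lowest concentration, no growth.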

Pseudomonas aeruginosa = test: MIC against Gram-negative bacteria: Pseudomonas aeruginosa; conditions: 5×10^5 CFU/mL
How it was run: as §1

Klebsiella pneumonia = test: MIC against Gram-negative bacteria: Klebsiella pneumonia; conditions: 5×10^5 CFU/mL
How it was run: as §1

Enterobacter cloacae = test: MIC against Gram-negative bacteria: Enterobacter cloacae; conditions: 5×10^5 CFU/mL
How it was run: as §1

Aeromonas hydrophila = test: MIC against Gram-negative bacteria: Aeromonas hydrophila; conditions: 5×10^5 CFU/mL
How it was run: as §1

Citrobacter diversus = test: MIC against Gram-negative bacteria: Citrobacter diversus; conditions: 5×10^5 CFU/mL
How it was run: as §1

Moraxella catarrhalis = test: MIC against Gram-negative bacteria: Moraxella catarrhalis; conditions: 5×10^5 CFU/mL
How it was run: as §1

Proteus mirabilis = test: MIC against Gram-negative bacteria: Proteus mirabilis; conditions: 5×10^5 CFU/mL
How it was run: as §1

Proteus vulgaris = test: MIC against Gram-negative bacteria: Proteus vulgaris; conditions: 5×10^5 CFU/mL
How it was run: as §1

Serratia marcescens = test: MIC against Gram-negative bacteria: Serratia marcescens; conditions: 5×10^5 CFU/mL
How it was run: as §1

[1] = E. coli BL21, 10 h cultivation at 37° C.
[2] = P. aeruginosa, 10 h cultivation at 37° C.
[3] = K. pneumonia, 10 h cultivation at 37° C.
[4] = E. cloacae, 10 h cultivation at 37° C.
[5] = A. hydrophila, 10 h cultivation at 37° C.
[6] = C. diversus, 10 h cultivation at 37° C.
[7] = M. catarrhalis, 10 h cultivation at 37° C.
[8] = P. mirabilis, 10 h cultivation at 37° C.
[9] = P. vulgaris, 10 h cultivation at 37° C.
[10] = S. marcescens, 10 h cultivation at 37° C.
[11] = 10 h cultivation at 37° C., two-fold serial dilution

PRT130 (ITDRCLPSYCEHGGECSQSWDTFSCDCLGTGYTGETCH; listed as Homo sapiens)
12.5 µg/mL: MIC (E. coli DH5α) | MIC (μg/mL) P. aeruginosa (Pseudomonas aeruginosa; Pseudomonas aeruginosa, 96-well plate, 37° C., 10 h) | MIC (μg/mL) E. cloacae (Enterobacter cloacae; Enterobacter cloacae, 96-well plate, 37° C., 10 h) | MIC (μg/mL) P. mirabilis (Proteus mirabilis; Proteus mirabilis, 96-well plate, 37° C., 10 h) | MIC (μg/mL) S. marcescens (Serratia marcescens; Serratia marcescens, 96-well plate, 37° C., 10 h)
25 µg/mL: MIC (μg/mL) E. coli BL21 (E. coli BL21; E. coli BL21, 96-well plate, 37° C., 10 h) | MIC (μg/mL) K. pneumonia (Klebsiella pneumonia; Klebsiella pneumonia, 96-well plate, 37° C., 10 h) | MIC (μg/mL) A. hydrophila (Aeromonas hydrophila; Aeromonas hydrophila, 96-well plate, 37° C., 10 h) | MIC (μg/mL) M. catarrhalis (Moraxella catarrhalis; Moraxella catarrhalis, 96-well plate, 37° C., 10 h)
50 µg/mL: MIC (μg/mL) C. diversus (Citrobacter diversus; Citrobacter diversus, 96-well plate, 37° C., 10 h) | MIC (μg/mL) P. vulgaris (Proteus vulgaris; Proteus vulgaris, 96-well plate, 37° C., 10 h)

PRT782 (AERCDCSHADGCHPTTGHCRCLPGWSGVHCD; listed as Homo sapiens)
12.5 µg/mL: MIC (μg/mL) P. aeruginosa (Pseudomonas aeruginosa; [2]) | MIC (μg/mL) K. pneumonia (Klebsiella pneumonia; [3]) | MIC (μg/mL) E. cloacae (Enterobacter cloacae; [4]) | MIC (μg/mL) A. hydrophila (Aeromonas hydrophila; [5]) | MIC (μg/mL) C. diversus (Citrobacter diversus; [6]) | MIC (μg/mL) M. catarrhalis (Moraxella catarrhalis; [7]) | MIC (μg/mL) P. vulgaris (Proteus vulgaris; [9])
25 µg/mL: MIC (μg/mL) E. coli BL21 (E. coli BL21; [1]) | MIC (μg/mL) P. mirabilis (Proteus mirabilis; [8])
50 µg/mL: MIC (E. coli DH5α) | MIC (μg/mL) S. marcescens (Serratia marcescens; [10])

PRT201 (NMSSCPLDSKGKVCSGHGVCSNEATCICDFTWAGTDCS; listed as Homo sapiens)
50 µg/mL: MIC (E. coli DH5α) | MIC (μg/mL) P. aeruginosa (Pseudomonas aeruginosa; [2]) | MIC (μg/mL) E. cloacae (Enterobacter cloacae; [4]) | MIC (μg/mL) C. diversus (Citrobacter diversus; [6]) | MIC (μg/mL) P. vulgaris (Proteus vulgaris; [9])
25 µg/mL: MIC (μg/mL) P. mirabilis (Proteus mirabilis; [8]) | MIC (μg/mL) S. marcescens (Serratia marcescens; [10])
12.5 µg/mL: MIC (μg/mL) E. coli BL21 (E. coli BL21; [1]) | MIC (μg/mL) K. pneumonia (Klebsiella pneumonia; [3]) | MIC (μg/mL) A. hydrophila (Aeromonas hydrophila; [5]) | MIC (μg/mL) M. catarrhalis (Moraxella catarrhalis; [7])

PRT1466 (CSCHTTGAVNHICNSLTGQCVCQDASIAGQRCDQCKDHYFGFDPQTGRCQP; listed as Homo sapiens)
25 µg/mL: MIC against E. coli BL21 (E. coli BL21; [1]) | MIC against P. mirabilis (Proteus mirabilis; Proteus mirabilis, 10 h cultivation at 37° C.) | MIC against S. marcescens (Serratia marcescens; Serratia marcescens, 10 h cultivation at 37° C.)
12.5 µg/mL: MIC against P. aeruginosa (Pseudomonas aeruginosa; Pseudomonas aeruginosa, 10 h cultivation at 37° C.) | MIC against E. cloacae (Enterobacter cloacae; Enterobacter cloacae, 10 h cultivation at 37° C.) | MIC against C. diversus (Citrobacter diversus; Citrobacter diversus, 10 h cultivation at 37° C.) | MIC against P. vulgaris (Proteus vulgaris; Proteus vulgaris, 10 h cultivation at 37° C.)
50 µg/mL: MIC (E. coli DH5α) | MIC against K. pneumonia (Klebsiella pneumonia; Klebsiella pneumonia, 10 h cultivation at 37° C.) | MIC against A. hydrophila (Aeromonas hydrophila; Aeromonas hydrophila, 10 h cultivation at 37° C.) | MIC against M. catarrhalis (Moraxella catarrhalis; Moraxella catarrhalis, 10 h cultivation at 37° C.)

PRT491 (LDICSKNPCHNGGLCEEISQEVRGDVFPSYTCTCLKGYAGNHCE; listed as Homo sapiens)
100 µg/mL: MIC against A. hydrophila (Aeromonas hydrophila; 96-well plate, 37° C., 10 h)
12.5 µg/mL: MIC (E. coli DH5α) | MIC against K. pneumonia (Klebsiella pneumonia; 96-well plate, 37° C., 10 h) | MIC against M. catarrhalis (Moraxella catarrhalis; 96-well plate, 37° C., 10 h) | MIC against S. marcescens (Serratia marcescens; 96-well plate, 37° C., 10 h)
25 µg/mL: MIC against E. coli BL21 (E. coli BL21; 96-well plate, 37° C., 10 h) | MIC against P. vulgaris (Proteus vulgaris; 96-well plate, 37° C., 10 h)
50 µg/mL: MIC against P. aeruginosa (Pseudomonas aeruginosa; 96-well plate, 37° C., 10 h) | MIC against E. cloacae (Enterobacter cloacae; 96-well plate, 37° C., 10 h) | MIC against C. diversus (Citrobacter diversus; 96-well plate, 37° C., 10 h) | MIC against P. mirabilis (Proteus mirabilis; 96-well plate, 37° C., 10 h)

PRT1163 (SVNSCAVNPCLHNGECVADNTSRGYHCRCPPSWQGDDCS; listed as Homo sapiens)
12.5 µg/mL: MIC (E. coli DH5α) | MIC P. aeruginosa (Pseudomonas aeruginosa; [11]) | MIC E. cloacae (Enterobacter cloacae; [11]) | MIC A. hydrophila (Aeromonas hydrophila; [11]) | MIC C. diversus (Citrobacter diversus; [11]) | MIC M. catarrhalis (Moraxella catarrhalis; [11]) | MIC P. mirabilis (Proteus mirabilis; [11]) | MIC P. vulgaris (Proteus vulgaris; [11])
25 µg/mL: MIC E. coli BL21 (E. coli BL21; [11]) | MIC K. pneumonia (Klebsiella pneumonia; [11]) | MIC S. marcescens (Serratia marcescens; [11])

PRT825 (FGPNCTHVCGCGQGAACDPVTGTCLCPPGRAGVRCE; listed as Homo sapiens)
12.5 µg/mL: MIC (μg/mL) E. coli BL21 (E. coli BL21; [1]) | MIC (μg/mL) A. hydrophila (Aeromonas hydrophila; [5]) | MIC (μg/mL) P. mirabilis (Proteus mirabilis; [8])
50 µg/mL: MIC (μg/mL) K. pneumonia (Klebsiella pneumonia; [3]) | MIC (μg/mL) M. catarrhalis (Moraxella catarrhalis; [7]) | MIC (μg/mL) P. vulgaris (Proteus vulgaris; [9])
25 µg/mL: MIC (E. coli DH5α) | MIC (μg/mL) P. aeruginosa (Pseudomonas aeruginosa; [2]) | MIC (μg/mL) E. cloacae (Enterobacter cloacae; [4]) | MIC (μg/mL) C. diversus (Citrobacter diversus; [6]) | MIC (μg/mL) S. marcescens (Serratia marcescens; [10])
